Data published in ChEMBL document CHEMBL2216752, “Carnitine palmitoyltransferase (CPT) modulators: a medicinal chemistry perspective on 35 years of research” (J Med Chem, 2011).

Tests used:
[1] = system: Rattus norvegicus; assay: Inhibition of ketogenesis in 17 hrs fasted po dosed rat; format: functional
[2] = system: Mus musculus; assay: Reduction in glucose level in db/db mouse at 30 mg/kgl/day, po for 12 days; format: functional; set-up: scale not given: the % may be the effect or the level left; conditions: dose 30 mg/kg
[3] = system: Mus musculus; assay: Reduction in body weight in C57BL/6J mouse at 250 pmol/day, icv for 4 days; format: functional; set-up: scale not given: the % may be the effect or the level left
[4] = system: Mus musculus; assay: Reduction in food intake in C57BL/6J mouse at 250 pmol/day, icv for 4 days; format: functional; set-up: scale not given: the % may be the effect or the level left
[5] = Inhibition of carnitine palmitoyltransferase in rat heart mitochondria assessed as conversion of [14C]palmitic acid to [14C]palmitoylcarnitine by radiometric assay
[6] = Inhibition of carnitine palmitoyltransferase in rat liver mitochondria assessed as conversion of [14C]palmitic acid to [14C]palmitoylcarnitine by radiometric assay
[7] = Inhibition of rat FAO
[8] = Inhibition of human FAO
[9] = target: T1, Carnitine O-palmitoyltransferase 2, mitochondrial (Homo sapiens, UniProt P23786); assay: Inhibition of human CPT2
T1 sequence (P23786 whole entry): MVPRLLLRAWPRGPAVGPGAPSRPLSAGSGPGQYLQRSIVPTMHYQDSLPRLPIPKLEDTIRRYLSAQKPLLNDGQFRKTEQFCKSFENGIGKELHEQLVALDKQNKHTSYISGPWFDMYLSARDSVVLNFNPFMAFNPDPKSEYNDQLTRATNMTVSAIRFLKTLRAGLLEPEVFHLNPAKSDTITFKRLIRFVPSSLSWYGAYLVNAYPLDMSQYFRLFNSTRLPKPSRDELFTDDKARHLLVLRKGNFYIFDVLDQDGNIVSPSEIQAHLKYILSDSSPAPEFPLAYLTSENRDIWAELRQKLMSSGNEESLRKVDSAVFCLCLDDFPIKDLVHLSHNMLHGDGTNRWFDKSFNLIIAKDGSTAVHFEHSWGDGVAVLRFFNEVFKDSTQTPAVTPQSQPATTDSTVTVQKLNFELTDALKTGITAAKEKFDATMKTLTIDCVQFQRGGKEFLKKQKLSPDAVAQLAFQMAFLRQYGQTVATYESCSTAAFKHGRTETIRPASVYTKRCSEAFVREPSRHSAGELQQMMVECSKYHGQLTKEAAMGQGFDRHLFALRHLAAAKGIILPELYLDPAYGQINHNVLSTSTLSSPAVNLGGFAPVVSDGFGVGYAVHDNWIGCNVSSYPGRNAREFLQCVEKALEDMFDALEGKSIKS

[10] = Critical micelle concentration of compound; format: physicochemical
[11] = target: T2, Carnitine O-palmitoyltransferase 1, muscle isoform (Homo sapiens, UniProt Q92523); assay: Inhibition of human CPT1B
T2 sequence (Q92523 whole entry): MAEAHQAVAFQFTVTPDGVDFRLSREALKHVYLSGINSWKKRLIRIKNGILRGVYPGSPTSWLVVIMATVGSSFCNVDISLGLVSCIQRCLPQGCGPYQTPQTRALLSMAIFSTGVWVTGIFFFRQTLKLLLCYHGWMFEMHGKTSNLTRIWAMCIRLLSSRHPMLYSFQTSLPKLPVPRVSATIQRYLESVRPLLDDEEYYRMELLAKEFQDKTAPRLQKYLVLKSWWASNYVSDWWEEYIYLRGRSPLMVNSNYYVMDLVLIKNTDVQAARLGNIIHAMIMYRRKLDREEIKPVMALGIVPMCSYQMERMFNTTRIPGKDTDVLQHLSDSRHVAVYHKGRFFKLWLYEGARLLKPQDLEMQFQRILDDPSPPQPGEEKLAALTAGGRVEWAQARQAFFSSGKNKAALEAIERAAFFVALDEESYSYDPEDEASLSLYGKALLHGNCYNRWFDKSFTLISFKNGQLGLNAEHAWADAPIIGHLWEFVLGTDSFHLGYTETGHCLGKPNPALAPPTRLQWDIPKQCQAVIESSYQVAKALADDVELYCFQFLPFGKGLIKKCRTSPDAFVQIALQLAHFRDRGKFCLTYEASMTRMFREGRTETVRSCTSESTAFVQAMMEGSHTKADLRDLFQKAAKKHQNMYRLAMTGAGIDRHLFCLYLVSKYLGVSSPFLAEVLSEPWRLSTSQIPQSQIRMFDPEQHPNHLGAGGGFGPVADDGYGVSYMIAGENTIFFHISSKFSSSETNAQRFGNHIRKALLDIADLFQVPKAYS

[12] = target: T3, Carnitine O-palmitoyltransferase 1, liver isoform (Homo sapiens, UniProt P50416); assay: Inhibition of human CPT1A
T3 sequence (P50416 whole entry): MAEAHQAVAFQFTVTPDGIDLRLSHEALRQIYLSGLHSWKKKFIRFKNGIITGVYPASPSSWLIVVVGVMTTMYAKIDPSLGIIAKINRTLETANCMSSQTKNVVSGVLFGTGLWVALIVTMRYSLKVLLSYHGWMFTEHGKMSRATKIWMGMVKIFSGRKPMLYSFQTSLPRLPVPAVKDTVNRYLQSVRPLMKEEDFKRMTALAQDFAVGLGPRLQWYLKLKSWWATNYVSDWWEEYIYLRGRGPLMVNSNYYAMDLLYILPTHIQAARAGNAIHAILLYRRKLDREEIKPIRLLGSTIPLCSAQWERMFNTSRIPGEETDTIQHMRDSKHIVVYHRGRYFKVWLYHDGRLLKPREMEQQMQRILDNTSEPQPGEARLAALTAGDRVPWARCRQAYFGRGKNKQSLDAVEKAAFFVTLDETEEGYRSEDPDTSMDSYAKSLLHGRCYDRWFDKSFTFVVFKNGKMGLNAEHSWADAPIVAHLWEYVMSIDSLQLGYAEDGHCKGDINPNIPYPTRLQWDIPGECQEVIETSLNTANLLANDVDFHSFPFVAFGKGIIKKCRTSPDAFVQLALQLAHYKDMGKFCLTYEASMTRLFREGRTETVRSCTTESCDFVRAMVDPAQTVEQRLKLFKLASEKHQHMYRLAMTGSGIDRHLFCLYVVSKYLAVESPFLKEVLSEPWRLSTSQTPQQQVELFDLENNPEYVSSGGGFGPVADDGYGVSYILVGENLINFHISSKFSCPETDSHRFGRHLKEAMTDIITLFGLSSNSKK

[13] = system: Mus musculus; assay: Reduction in blood glucose level STZ-treated mouse at 1 mmol/kg, po measured 6 to 12 hrs post dose; format: functional; set-up: scale not given: the % may be the effect or the level left
[14] = system: Mus musculus; assay: Inhibition of [14C]palmitate oxidation to CO2 in mouse at 0.1 mmol/kg, ip; format: functional
[15] = Inhibition of carnitine palmitoyltransferase in fasted rat detergent lysed liver mitochondria by DTNB based spectrophotometric assay
[16] = system: Rattus norvegicus; assay: Reduction in KB level po dosed 24 hrs fasted rat measured 6 hrs post dose; format: functional
[17] = system: Mus musculus; assay: Reduction in serum glucose level db/db mouse at 100 mg/kg/day for 30 days; format: functional; set-up: scale not given: the % may be the effect or the level left
[18] = Competitive inhibition of carnitine palmitoyltransferase using palmitoyl-CoA
[19] = system: Mus musculus; assay: Reduction in glucose level in db/db mouse at 80 mg/kgl/day, po for 12 days; format: functional; set-up: scale not given: the % may be the effect or the level left; conditions: dose 80 mg/kg
[20] = system: Cynomolgus monkey; assay: Inhibition of ketogenesis in fasted po dosed cynomolgus monkey; format: functional; conditions: Macaca fascicularis
[21] = system: Rattus norvegicus; assay: Reduction in glucose production in Sprague-Dawley rat at 5 to 25 pmol, icv administered as one or two single doses; format: functional; set-up: scale not given: the % may be the effect or the level left
[22] = system: Mus musculus; assay: Reduction in blood glucose level in db/db mouse at 50 mg/kg, po bid for 45 days; format: functional; set-up: scale not given: the % may be the effect or the level left
[23] = system: Mus musculus; assay: Increase in circulating FFA level in db/db mouse at 50 mg/kg, po bid for 45 days; format: functional
[24] = system: Mus musculus; assay: Increase in liver TG level in db/db mouse at 50 mg/kg, po bid for 45 days; format: functional
[25] = system: Mus musculus; assay: Reduction in water consumption in db/db mouse at 50 mg/kg, po bid for 45 days; format: functional; set-up: scale not given: the % may be the effect or the level left
[26] = system: Mus musculus; assay: Reduction in serum fructosamine level in db/db mouse at 50 mg/kg, po bid for 45 days; format: functional; set-up: scale not given: the % may be the effect or the level left
[27] = system: Mus musculus; assay: Reduction in liver glycogen level in db/db mouse at 50 mg/kg, po bid for 45 days; format: functional; set-up: scale not given: the % may be the effect or the level left
[28] = system: Mus musculus; assay: Reduction in serum glucose in db/db mouse at 50 mg/kg, po bid for 45 days; format: functional; set-up: scale not given: the % may be the effect or the level left
[29] = system: Homo sapiens; assay: Reduction in fasting insulin in NIDD patient at 450 mg/day, po for 15 days; format: functional; set-up: scale not given: the % may be the effect or the level left
[30] = system: Homo sapiens; assay: Reduction in HOMA index in NIDD patient at 450 mg/day, po for 15 days; format: functional; set-up: scale not given: the % may be the effect or the level left
[31] = Half life in NIDD patient at 150 to 450 mg/day, po for 15 days; format: ADME, organism-based; conditions: human, in vivo
[32] = target: T4, Carnitine O-palmitoyltransferase 2, mitochondrial (Rattus norvegicus, UniProt P18886); assay: Inhibition of rat CPT2
T4 sequence (P18886 whole entry): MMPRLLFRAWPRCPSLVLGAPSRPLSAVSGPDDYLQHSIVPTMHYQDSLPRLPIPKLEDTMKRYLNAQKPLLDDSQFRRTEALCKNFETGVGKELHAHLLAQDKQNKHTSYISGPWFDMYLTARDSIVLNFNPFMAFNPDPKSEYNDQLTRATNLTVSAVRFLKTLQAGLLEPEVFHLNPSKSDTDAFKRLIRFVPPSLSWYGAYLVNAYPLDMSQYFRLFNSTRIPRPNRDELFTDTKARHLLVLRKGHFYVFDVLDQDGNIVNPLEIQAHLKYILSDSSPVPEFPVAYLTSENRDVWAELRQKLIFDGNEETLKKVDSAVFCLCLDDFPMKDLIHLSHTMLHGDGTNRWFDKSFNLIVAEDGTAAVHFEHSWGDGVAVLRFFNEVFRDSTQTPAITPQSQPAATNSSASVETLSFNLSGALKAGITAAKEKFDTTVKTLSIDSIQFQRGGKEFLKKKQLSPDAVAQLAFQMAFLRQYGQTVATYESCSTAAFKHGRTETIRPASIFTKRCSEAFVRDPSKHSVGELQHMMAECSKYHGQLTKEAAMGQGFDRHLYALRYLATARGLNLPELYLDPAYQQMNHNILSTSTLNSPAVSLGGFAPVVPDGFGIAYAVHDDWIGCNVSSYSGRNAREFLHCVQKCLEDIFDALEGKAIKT

[33] = system: Rattus norvegicus; assay: Toxicity in rat assessed as induction of heart muscle enlargement at 200 mg/kg/day for 12 weeks administered through food admix; format: organism-based, Muscle tissue; conditions: in vivo, 2016 h
[34] = target: T1, Carnitine O-palmitoyltransferase 2, mitochondrial; assay: Competitive inhibition of CPT2 in liver mitochondria using carnitine
[35] = target: T1, Carnitine O-palmitoyltransferase 2, mitochondrial; assay: Competitive inhibition of CPT2 in heart mitochondria using carnitine
[36] = target: T1, Carnitine O-palmitoyltransferase 2, mitochondrial; assay: Competitive inhibition of CPT2

CCCCCCOc1cccc(OCCCCNC(=O)N[C@H](CC(=O)[O-])C[N+](C)(C)C)c1
ED50 [1]: 3.7 mg/kg | Activity [2]: 41% | Activity [3]: 7% | Activity [4]: 25% | IC50 [5]: 5440 nM | IC50 [6]: 130 nM | IC50 [7]: 30 nM | IC50 [8]: 730 nM | IC50 [9]: 5400 nM | CMC [10]: 0.79 mM | IC50 [11]: 85300 nM | IC50 [12]: 1700 nM

CCCCCCCCCCCCCCCC(=O)NC(CC(=O)[O-])C[N+](C)(C)C (racemic)
Activity [13]: 45% | inhibition in vivo at 100 µmol/kg [14]: 46% | IC50 [15]: 50 nM

CCCCCCCCCCCCS(=O)(=O)N[C@H](CC(=O)[O-])C[N+](C)(C)C
ED50 [16]: 20 mg/kg | Activity [17]: 28% | IC50 [5]: 3400 nM | IC50 [6]: 700 nM | Ki [18]: 250 nM

CCCCCCCCCCCCCCNC(=O)N[C@H](CC(=O)[O-])C[N+](C)(C)C
Activity [19]: 26% | ED50 [20]: 0.5 mg/kg | Activity [21]: 45% | Activity [22]: 39% | Activity [23]: 20% | Activity [24]: 38% | Activity [25]: 30% | Activity [26]: 30% | Activity [27]: 25% | Activity [28]: 25% | IC50 [5]: 43400 nM | IC50 [6]: 1100 nM | IC50 [7]: 980 nM | IC50 [8]: 4000 nM | IC50 [9]: 160 nM | Activity [29]: 12% | Activity [30]: 25% | half-life [31]: 25 h | IC50 [32]: 380 nM | CMC [10]: 0.029 mM | Ki [18]: 360 nM | IC50 [11]: 5400 nM | IC50 [12]: 1050 nM

O=C([O-])[C@@]1(CCCCCc2ccc(Cl)cc2)CO1.[Na+] [CLOMIXIR]
Activity [33]: 15%

CCCCCCCCCCCCCCC[C@@]1(O)C[N+](C)(C)C[C@@H](CC(=O)[O-])O1 (racemic)
Ki [34]: 4200 nM | Ki [35]: 2800 nM | Ki [36]: 160 nM
